Source: ChEMBL document CHEMBL3045012, “Quinoline-based azetidinone and thiazolidinone analogues as antimicrobial and antituberculosis agents” (2013)
Converted amounts (≈) assume the structure as drawn.

Legend:
Assay type in all cases: functional
[1] = system: Mycobacterium tuberculosis; assay: Antituberculosis activity against Mycobacterium tuberculosis H37Rv assessed as growth inhibition after 12 to 28 days by L-J MIC method; settings: for MIC: Mycobacterium tuberculosis, H37Rv
[2] = system: Candida albicans; assay: Antimicrobial activity against Candida albicans MTCC 183 assessed as growth inhibition after 48 hr by agar streak dilution technique; settings: MTCC 183, 48 h
[3] = system: Aspergillus niger; assay: Antimicrobial activity against Aspergillus niger MTCC 282 assessed as growth inhibition after 48 hr by agar streak dilution technique; settings: MTCC 282, 48 h
[4] = system: Pseudomonas aeruginosa; assay: Antimicrobial activity against Pseudomonas aeruginosa MTCC 741 assessed as growth inhibition after 24 hr by agar streak dilution technique; settings: MTCC 741, 24 h
[5] = system: Escherichia coli; assay: Antimicrobial activity against Escherichia coli MTCC 739 assessed as growth inhibition after 24 hr by agar streak dilution technique; settings: MTCC 739, 24 h
[6] = system: Bacillus subtilis; assay: Antimicrobial activity against Bacillus subtilis MTCC 430 assessed as growth inhibition after 24 hr by agar streak dilution technique; settings: MTCC 430, 24 h
[7] = system: Staphylococcus aureus; assay: Antimicrobial activity against Staphylococcus aureus MTCC 96 assessed as growth inhibition after 24 hr by agar streak dilution technique; settings: MTCC 96, 24 h
[8] = system: Candida albicans; assay: Antimicrobial activity against Candida albicans MTCC 183 assessed as diameter of growth inhibition zone after 24 hr by paper disk diffusion technique
[9] = system: Aspergillus niger; assay: Antimicrobial activity against Aspergillus niger MTCC 282 assessed as diameter of growth inhibition zone after 24 hr by paper disk diffusion technique
[10] = system: Pseudomonas aeruginosa; assay: Antimicrobial activity against Pseudomonas aeruginosa MTCC 741 assessed as diameter of growth inhibition zone after 24 hr by paper disk diffusion technique
[11] = system: Escherichia coli; assay: Antimicrobial activity against Escherichia coli MTCC 739 assessed as diameter of growth inhibition zone after 24 hr by paper disk diffusion technique
[12] = system: Bacillus subtilis; assay: Antimicrobial activity against Bacillus subtilis MTCC 430 assessed as diameter of growth inhibition zone after 24 hr by paper disk diffusion technique
[13] = system: Staphylococcus aureus; assay: Antimicrobial activity against Staphylococcus aureus MTCC 96 assessed as diameter of growth inhibition zone after 24 hr by paper disk diffusion technique

Structure (SMILES) | growth inhibition (GI) [1] | MIC [1] | MIC [2] | MIC [3] | MIC [4] | MIC [5] | MIC [6] | MIC [7] | diameter of the inhibition zone (DIZ) [8] | diameter of the inhibition zone (DIZ) [9] | diameter of the inhibition zone (DIZ) [10] | diameter of the inhibition zone (DIZ) [11] | diameter of the inhibition zone (DIZ) [12] | diameter of the inhibition zone (DIZ) [13]
O=C1C(Cl)C(c2cc3ccccc3nc2Cl)N1c1ccc(Cl)cc1 (stereo unspecified) | 95% | 100 mg/L (≈ 265 µM) | 62.5 mg/L (≈ 165 µM) | 100 mg/L (≈ 265 µM) | 25 mg/L (≈ 66.2 µM) | 50 mg/L (≈ 132 µM) | 12.5 mg/L (≈ 33.1 µM) | 50 mg/L (≈ 132 µM) | 21 mm | 22 mm | 23 mm | 22 mm | 24 mm | 21 mm
O=C1C(Cl)C(c2cc3ccccc3nc2Cl)N1c1ccc(F)cc1 (stereo unspecified) | 98% | 25 mg/L (≈ 69.2 µM) | 50 mg/L (≈ 138 µM) | 25 mg/L (≈ 69.2 µM) | 50 mg/L (≈ 138 µM) | 25 mg/L (≈ 69.2 µM) | 25 mg/L (≈ 69.2 µM) | 25 mg/L (≈ 69.2 µM) | 24 mm | 26 mm | 22 mm | 23 mm | 23 mm | 23 mm
Cc1cnc(N2C(=O)C(Cl)C2c2cc3ccccc3nc2Cl)s1 (stereo unspecified) | 99% | 12.5 mg/L (≈ 34.3 µM) | 100 mg/L (≈ 275 µM) | 62.5 mg/L (≈ 172 µM) | 50 mg/L (≈ 137 µM) | 25 mg/L (≈ 68.6 µM) | 50 mg/L (≈ 137 µM) | 50 mg/L (≈ 137 µM) | 23 mm | 23 mm | 21 mm | 24 mm | 21 mm | 23 mm
O=C1CSC(c2cc3ccccc3nc2Cl)N1c1ccccc1 (stereo unspecified) | 92% | 250 mg/L (≈ 733 µM) | 100 mg/L (≈ 293 µM) | 100 mg/L (≈ 293 µM) | 100 mg/L (≈ 293 µM) | 100 mg/L (≈ 293 µM) | 100 mg/L (≈ 293 µM) | 100 mg/L (≈ 293 µM) | <10 mm | 14 mm | 13 mm | <10 mm | <10 mm | 17 mm
Cc1ccccc1N1C(=O)CSC1c1cc2ccccc2nc1Cl (stereo unspecified) | 90% | 500 mg/L (≈ 1410 µM) | 100 mg/L (≈ 282 µM) | 100 mg/L (≈ 282 µM) | 100 mg/L (≈ 282 µM) | 100 mg/L (≈ 282 µM) | 100 mg/L (≈ 282 µM) | 100 mg/L (≈ 282 µM) | <10 mm | <10 mm | <10 mm | <10 mm | <10 mm | <10 mm
Cc1cccc(N2C(=O)CSC2c2cc3ccccc3nc2Cl)c1 (stereo unspecified) | 90% | 500 mg/L (≈ 1410 µM) | 100 mg/L (≈ 282 µM) | 100 mg/L (≈ 282 µM) | 100 mg/L (≈ 282 µM) | 100 mg/L (≈ 282 µM) | 100 mg/L (≈ 282 µM) | 100 mg/L (≈ 282 µM) | 13 mm | 19 mm | 16 mm | <10 mm | 17 mm | 18 mm
Cc1ccc(N2C(=O)CSC2c2cc3ccccc3nc2Cl)cc1 (stereo unspecified) | 94% | 250 mg/L (≈ 704 µM) | 100 mg/L (≈ 282 µM) | 100 mg/L (≈ 282 µM) | 62.5 mg/L (≈ 176 µM) | 100 mg/L (≈ 282 µM) | 100 mg/L (≈ 282 µM) | 100 mg/L (≈ 282 µM) | 17 mm | <10 mm | 20 mm | 17 mm | 19 mm | 19 mm
O=C1CSC(c2cc3ccccc3nc2Cl)N1c1ccccc1[N+](=O)[O-] (stereo unspecified) | 93% | 200 mg/L (≈ 518 µM) | 100 mg/L (≈ 259 µM) | 50 mg/L (≈ 130 µM) | 12.5 mg/L (≈ 32.4 µM) | 12.5 mg/L (≈ 32.4 µM) | 62.5 mg/L (≈ 162 µM) | 25 mg/L (≈ 64.8 µM) | 20 mm | 22 mm | 25 mm | 24 mm | 21 mm | 25 mm
O=C1CSC(c2cc3ccccc3nc2Cl)N1c1cccc([N+](=O)[O-])c1 (stereo unspecified) | 94% | 100 mg/L (≈ 259 µM) | 25 mg/L (≈ 64.8 µM) | 25 mg/L (≈ 64.8 µM) | 12.5 mg/L (≈ 32.4 µM) | 62.5 mg/L (≈ 162 µM) | 50 mg/L (≈ 130 µM) | 12.5 mg/L (≈ 32.4 µM) | 23 mm | 24 mm | 24 mm | 22 mm | 22 mm | 26 mm
O=C1CSC(c2cc3ccccc3nc2Cl)N1c1ccc([N+](=O)[O-])cc1 (stereo unspecified) | 97% | 50 mg/L (≈ 130 µM) | 25 mg/L (≈ 64.8 µM) | 12.5 mg/L (≈ 32.4 µM) | 12.5 mg/L (≈ 32.4 µM) | 62.5 mg/L (≈ 162 µM) | 50 mg/L (≈ 130 µM) | 12.5 mg/L (≈ 32.4 µM) | 24 mm | 24 mm | 25 mm | 21 mm | 23 mm | 26 mm
O=C1CSC(c2cc3ccccc3nc2Cl)N1c1ccccc1Cl (stereo unspecified) | 95% | 100 mg/L (≈ 266 µM) | 62.5 mg/L (≈ 167 µM) | 62.5 mg/L (≈ 167 µM) | 25 mg/L (≈ 66.6 µM) | 62.5 mg/L (≈ 167 µM) | 12.5 mg/L (≈ 33.3 µM) | 50 mg/L (≈ 133 µM) | 21 mm | 20 mm | 21 mm | 21 mm | 23 mm | 21 mm
O=C1CSC(c2cc3ccccc3nc2Cl)N1c1cccc(Cl)c1 (stereo unspecified) | 97% | 50 mg/L (≈ 133 µM) | 100 mg/L (≈ 266 µM) | 50 mg/L (≈ 133 µM) | 25 mg/L (≈ 66.6 µM) | 62.5 mg/L (≈ 167 µM) | 12.5 mg/L (≈ 33.3 µM) | 25 mg/L (≈ 66.6 µM) | 20 mm | 24 mm | 23 mm | 22 mm | 24 mm | 26 mm
O=C1CSC(c2cc3ccccc3nc2Cl)N1c1ccc(Cl)cc1 (stereo unspecified) | 96% | 62.5 mg/L (≈ 167 µM) | 50 mg/L (≈ 133 µM) | 12.5 mg/L (≈ 33.3 µM) | 25 mg/L (≈ 66.6 µM) | 50 mg/L (≈ 133 µM) | 12.5 mg/L (≈ 33.3 µM) | 50 mg/L (≈ 133 µM) | 22 mm | 25 mm | 24 mm | 23 mm | 24 mm | 23 mm
O=C1CSC(c2cc3ccccc3nc2Cl)N1c1ccc(F)cc1 (stereo unspecified) | 99% | 12.5 mg/L (≈ 34.8 µM) | 25 mg/L (≈ 69.7 µM) | 12.5 mg/L (≈ 34.8 µM) | 25 mg/L (≈ 69.7 µM) | 25 mg/L (≈ 69.7 µM) | 12.5 mg/L (≈ 34.8 µM) | 25 mg/L (≈ 69.7 µM) | 24 mm | 25 mm | 24 mm | 23 mm | 23 mm | 24 mm
Cc1cnc(N2C(=O)CSC2c2cc3ccccc3nc2Cl)s1 (stereo unspecified) | 98% | 25 mg/L (≈ 69.1 µM) | 100 mg/L (≈ 276 µM) | 62.5 mg/L (≈ 173 µM) | 50 mg/L (≈ 138 µM) | 25 mg/L (≈ 69.1 µM) | 50 mg/L (≈ 138 µM) | 50 mg/L (≈ 138 µM) | 23 mm | 24 mm | 22 mm | 24 mm | 23 mm | 24 mm
O=C(O)c1cn(C2CC2)c2cc(N3CCNCC3)c(F)cc2c1=O [CIPROFLOXACIN] | – | – | – | – | ≤ 1 mg/L | ≤ 1 mg/L | ≤ 1 mg/L | ≤ 1 mg/L | – | – | 33 mm | 32 mm | 31 mm | 30 mm
CC[C@@H](CO)NCCN[C@@H](CC)CO [ETHAMBUTOL] | 99% | 3.12 mg/L (≈ 15.3 µM) | – | – | – | – | – | – | – | – | – | – | – | –
CC(=O)N1CCN(c2ccc(OCC3COC(Cn4ccnc4)(c4ccc(Cl)cc4Cl)O3)cc2)CC1 (stereo unspecified) [KETOCONAZOLE] | – | – | ≤ 1 mg/L | ≤ 3 mg/L | – | – | – | – | 33 mm | 30 mm | – | – | – | –
NC(=O)c1cnccn1 [PYRAZINAMIDE] | 99% | 6.25 mg/L (≈ 50.8 µM) | – | – | – | – | – | – | – | – | – | – | – | –
